Measurements as given in patent publication US8420574B2, “Plant growth enhancement with combinations of PESA and herbicides” (Valent BioSciences Corporation, priority 2009, dated 2013).
Counter-ions that a name gives are not always drawn.

Test system: rice cv. Cheniere
Experiment: Pouch assay, PESA salt and herbicide added to the pouch solution; root and shoot length
Assay type: in vivo
Protocol: Alternatively, PESA salt and herbicides may be added separately to the sterile water in the growth pouch.
Seeds were placed in germination pouches consisting of germination paper hydrated with sterile water that was an insert in a gas-permeable 16×14 cm plastic pouch (CYG Pouch; Mega International, St. Paul, Minn.). In these examples, in pouch solution evaluation, PESA sodium salt or other active ingredients were added to the sterile water in the pouch. The pouches were arranged in a completely randomized block design in growth racks and placed in 19-liter polycarbonate food storage containers (Rubbermaid Commercial Products, Winchester, Va.). The sealed containers were held in an upright growth cabinet maintained at 25 C with a 12 hour light: 12 hour dark photoperiod. After 6 days, the containers were removed from the growth cabinet, and the lengths of the roots and shoot were measured.

For `O=C(O)CCC(=O)NCCc1ccccc1` [PESA salt, N-(2-phenylethyl)succinamic acid], the “Shoot Length” value (0 ppm pendimethalin, treatment 30 ppm PESA salt, 10 ppm GA3 or both, untreated 3.9) was 3.8 cm, the “Root Length” value (0 ppm pendimethalin, treatment 30 ppm PESA salt, 10 ppm GA3 or both, untreated 9.7) was 11.2 cm and the “Shoot Length” value (10 ppm dithiopyr, treatment none (Control), 30 ppm PESA salt, 10 ppm GA3 or both, untreated 3.9) was 2.8 cm. The “Root Length” value (10 ppm dithiopyr, treatment none (Control), 30 ppm PESA salt, 10 ppm GA3 or both, untreated 9.5) was 6.4 cm, the “Shoot Length” value (30 ppm PESA salt, 0 ppm chlorsulfuron, untreated 4.8) was 4.9 cm and the “Root Length” value (30 ppm PESA salt, 0 ppm chlorsulfuron, untreated 11.6) was 12.8 cm. The “Shoot Length” value (30 ppm PESA salt, 0 ppm dithiopyr, untreated 4.0) was 4.2 cm, the “Root Length” value (30 ppm PESA salt, 0 ppm dithiopyr, untreated 9.5) was 12.2 cm and the “Shoot Length” value (30 ppm PESA salt, 0 ppm metolachlor, untreated 3.7) was 3.7 cm. The “Root Length” value (30 ppm PESA salt, 0 ppm metolachlor, untreated 9.3) was 10.9 cm, the “Shoot Length” value (30 ppm PESA salt, 0 ppm pendimethalin, untreated 3.4) was 3.6 cm and the “Root Length” value (30 ppm PESA salt, 0 ppm pendimethalin, untreated 8.5) was 10.1 cm. The “Shoot Length” value (30 ppm PESA salt, 0 ppm trifluralin, untreated 3.2) was 3.7 cm, the “Root Length” value (30 ppm PESA salt, 0 ppm trifluralin, untreated 9.2) was 10.7 cm and the “Shoot Length” value (30 ppm PESA salt, 1 ppm dithiopyr, untreated 4.0) was 4.0 cm. For the same compound, the “Root Length” value (30 ppm PESA salt, 1 ppm dithiopyr, untreated 9.5) was 11.4 cm, the “Shoot Length” value (30 ppm PESA salt, 1 ppm metolachlor, untreated 3.7) was 3.9 cm and the “Root Length” value (30 ppm PESA salt, 1 ppm metolachlor, untreated 9.3) was 8.6 cm. The “Shoot Length” value (30 ppm PESA salt, 1 ppm trifluralin, untreated 3.2) was 3.6 cm, the “Root Length” value (30 ppm PESA salt, 1 ppm trifluralin, untreated 9.2) was 10.6 cm and the “Shoot Length” value (30 ppm PESA salt, 10 ppm chlorsulfuron, untreated 4.8) was 0.9 cm. For the same compound, the “Root Length” value (30 ppm PESA salt, 10 ppm chlorsulfuron, untreated 11.6) was 0.5 cm, the “Shoot Length” value (30 ppm PESA salt, 10 ppm dithiopyr, untreated 4.0) was 3.7 cm and the “Root Length” value (30 ppm PESA salt, 10 ppm dithiopyr, untreated 9.5) was 9.1 cm. The “Shoot Length” value (30 ppm PESA salt, 10 ppm metolachlor, untreated 3.7) was 0.9 cm, the “Root Length” value (30 ppm PESA salt, 10 ppm metolachlor, untreated 9.3) was 4.4 cm and the “Shoot Length” value (30 ppm PESA salt, 10 ppm pendimethalin, untreated 3.4) was 3.2 cm. The “Root Length” value (30 ppm PESA salt, 10 ppm pendimethalin, untreated 8.5) was 9.4 cm, the “Shoot Length” value (30 ppm PESA salt, 10 ppm trifluralin, untreated 3.2) was 2.9 cm and the “Root Length” value (30 ppm PESA salt, 10 ppm trifluralin, untreated 9.2) was 9.1 cm. For the same compound, the “Shoot Length” value (30 ppm PESA salt, 100 ppm chlorsulfuron, untreated 4.8) was 0.8 cm, the “Root Length” value (30 ppm PESA salt, 100 ppm chlorsulfuron, untreated 11.6) was 0.3 cm and the “Shoot Length” value (30 ppm PESA salt, 100 ppm dithiopyr, untreated 4.0) was 1.1 cm. The “Root Length” value (30 ppm PESA salt, 100 ppm dithiopyr, untreated 9.5) was 0.4 cm, the “Shoot Length” value (30 ppm PESA salt, 100 ppm metolachlor, untreated 3.7) was 0.6 cm and the “Root Length” value (30 ppm PESA salt, 100 ppm metolachlor, untreated 9.3) was 1.7 cm. The “Shoot Length” value (30 ppm PESA salt, 100 ppm pendimethalin, untreated 3.4) was 1.0 cm, the “Root Length” value (30 ppm PESA salt, 100 ppm pendimethalin, untreated 8.5) was 3.1 cm and the “Shoot Length” value (30 ppm PESA salt, 100 ppm trifluralin, untreated 3.2) was 2.4 cm. The “Root Length” value (30 ppm PESA salt, 100 ppm trifluralin, untreated 9.2) was 5.1 cm, the “Shoot Length” value (30 ppm PESA salt, 500 ppm pendimethalin, untreated 3.4) was 0.5 cm and the “Root Length” value (30 ppm PESA salt, 500 ppm pendimethalin, untreated 8.5) was 0.6 cm. For the same compound, the “protection of roots from herbicide” value (30 ppm PESA with 10 ppm dithiopyr) was “protected the roots largely from the negative effects of dithiopyr”, the “protection of roots from herbicide” value (30 ppm PESA with 100 ppm trifluralin) was “largely protected the roots from the negative effects of trifluralin” and the “Shoot Length” value (50 ppm pendimethalin, treatment none (Control), 30 ppm PESA salt, 10 ppm GA3 or both, untreated 3.9) was 1.1 cm. The “Root Length” value (50 ppm pendimethalin, treatment none (Control), 30 ppm PESA salt, 10 ppm GA3 or both, untreated 9.7) was 5.6 cm, the “root length greater than with pendimethalin alone” value (PESA and pendimethalin, on average) was 20% and the “root length relative to pendimethalin alone” value (PESA salt added to pendimethalin (Table 4)) was “twice the length of those grown in pendimethalin alone”. For the same compound, the “effect on root and shoot length” value (PESA salt in the absence of trifluralin) was “significant increase in both root and shoot length”, the “protection of roots from herbicide” value (PESA salt with 10 ppm metolachlor) was “partially protected primary root length” and the “protection of root length from herbicide” value (PESA salt with chlorsulfuron, rice) was “had no activity in combination with chlorsulfuron”. For the same compound, the “effect on shoot length under herbicide” value (PESA salt with dithiopyr) was “did not significantly alter the negative effects of dithiopyr on shoot length”, the “effect on shoot growth under herbicide” value (PESA salt with pendimethalin) was “did not overcome the negative effects of pendimethalin on shoot growth” and the “effect on shoot length under herbicide” value (PESA salt with trifluralin) was “did not consistently overcome the negative effects of trifluralin on shoot length”. The “root length increased by” value (addition of 30 ppm PESA to 100 ppm pendimethalin) was 25%, the “Shoot Length” value (no dithiopyr (Control), treatment 30 ppm PESA salt, 10 ppm GA3 or both, untreated 3.9) was 3.6 cm and the “Root Length” value (no dithiopyr (Control), treatment 30 ppm PESA salt, 10 ppm GA3 or both, untreated 9.5) was 10.7 cm.
